Test results: article PMC9607330, “Cell Cycle Arrest and Apoptosis-Inducing Ability of Benzimidazole Derivatives: Design, Synthesis, Docking, and Biological Evaluation” (Molecules, 2022)

Columns and labels:
MDA-MB-231 cells [1] = test: MTT antiproliferative assay, MDA-MB-231; conditions: for IC50: read-out: IC50 (μM) MDA-MB231, MTT, MDA-MB-231 (breast), mean ± SD of three experiments; for fold increase in cytotoxicity versus doxorubicin: MDA-MB-231, ratio of IC50 values
Experimental: Doxorubicin was used as a standard anticancer drug.
The cytotoxicity was assessed using the MTT method, according to our previously reported work [32]. The cell lines were purchased from American Type Culture Collection (ATCC).
FBS (10%) and 100 units/mL PS (penicillin/streptomycin) were
supplied to that same media. The cells incubated at 37 °C in a humidified environment with 5%

SKOV3 cells [2] = test: MTT antiproliferative assay, SKOV3; assay type: cell-based, human; conditions: for IC50: Homo sapiens, SK-OV-3, MTT, SKOV3 (ovarian), mean ± SD of three experiments; for fold better activity than doxorubicin: SKOV3, ratio of IC50 values
From the text: (§1) adenocarcinoma) cell lines.
(§2) supplied to that same media.
(§3) carbon dioxide. […] The positive
(§4) (FluoStar Omega (BMG Labtec, Ortenberg, Germany).

A549 cells [3] = test: MTT antiproliferative assay, A549; assay type: cell-based, human; conditions: for IC50: Homo sapiens, MTT, A549 (lung), mean ± SD of three experiments; for times more active than doxorubicin: A549, ratio of IC50 values
From the text: as §1, §2, §3, §4

EGFR kinase = EGFR kinase (Homo sapiens, UniProt P00533); test: In vitro EGFR inhibitory activity; assay type: biochemical
Sequence of EGFR kinase (P00533 25-1210): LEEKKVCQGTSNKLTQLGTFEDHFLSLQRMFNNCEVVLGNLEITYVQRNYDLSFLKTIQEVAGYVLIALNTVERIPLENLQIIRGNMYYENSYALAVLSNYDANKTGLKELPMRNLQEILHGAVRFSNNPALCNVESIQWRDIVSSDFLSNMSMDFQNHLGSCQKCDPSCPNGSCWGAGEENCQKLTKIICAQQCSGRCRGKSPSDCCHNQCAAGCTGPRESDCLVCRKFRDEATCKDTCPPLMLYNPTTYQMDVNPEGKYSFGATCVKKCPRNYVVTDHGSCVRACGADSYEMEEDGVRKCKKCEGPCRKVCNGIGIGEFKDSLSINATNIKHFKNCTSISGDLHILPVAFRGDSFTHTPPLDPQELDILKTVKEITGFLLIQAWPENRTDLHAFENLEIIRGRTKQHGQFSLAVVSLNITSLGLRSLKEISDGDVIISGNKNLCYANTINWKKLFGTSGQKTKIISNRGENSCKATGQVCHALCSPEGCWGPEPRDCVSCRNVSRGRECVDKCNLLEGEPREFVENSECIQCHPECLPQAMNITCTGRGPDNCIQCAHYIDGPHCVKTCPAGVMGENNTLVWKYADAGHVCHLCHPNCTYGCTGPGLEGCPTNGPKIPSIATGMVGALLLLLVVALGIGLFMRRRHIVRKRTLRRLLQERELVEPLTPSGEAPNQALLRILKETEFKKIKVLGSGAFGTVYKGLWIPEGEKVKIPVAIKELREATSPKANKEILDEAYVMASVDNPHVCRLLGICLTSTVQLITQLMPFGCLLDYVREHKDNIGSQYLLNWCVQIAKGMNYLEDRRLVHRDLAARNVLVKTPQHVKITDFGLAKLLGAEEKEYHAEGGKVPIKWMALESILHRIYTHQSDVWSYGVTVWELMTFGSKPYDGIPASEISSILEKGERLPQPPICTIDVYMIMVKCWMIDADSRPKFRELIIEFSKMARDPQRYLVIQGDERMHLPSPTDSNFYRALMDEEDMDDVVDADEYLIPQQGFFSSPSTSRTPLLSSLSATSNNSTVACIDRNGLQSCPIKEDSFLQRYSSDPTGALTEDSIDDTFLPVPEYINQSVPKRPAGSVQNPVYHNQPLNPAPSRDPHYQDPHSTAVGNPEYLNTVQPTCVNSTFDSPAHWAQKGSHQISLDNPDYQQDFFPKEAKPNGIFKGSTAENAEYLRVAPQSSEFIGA
Experimental: EGFR inhibitory activity was assayed according to the reported method.

MDA-MB-231 cells [4] = test: Apoptosis, annexin V-FITC/PI flow cytometry, MDA-MB-231; assay type: cell-based, human; conditions: for early apoptosis / late apoptosis: MDA-MB-231
Experimental: (§5) The apoptosis studies regarding compounds 10 and 13 using annexin V-FITC/PI staining was also examined by flow cytometry.
as §1, §2, §3, §4
(§6) delivered to cancer cells for 48 hours. A549, MDA,MB 231 and SKOV3 cells were then
(§7) Technology (CST) and incubated for 15 minutes. Fluorescence activated cell sorting analysis
(§8) of cell cycle phases for each sample [37].

MDA-MB-231 cells [5] = test: Cell cycle distribution, propidium iodide flow cytometry, MDA-MB-231; assay type: cell-based, human; conditions: for cell cycle arrest phase: MDA-MB-231; for cell distribution in G1 phase / cell distribution in S phase / cell distribution in G2 phase: MDA-MB-231, treated at IC50 for 48 h; for cell distribution in G1 phase: control 28.51 ± 2.09%; for cell distribution in S phase: control 35.51 ± 2.10%; for cell distribution in G2 phase: control 35.96 ± 1.97%
Experimental: (§9) The most promising compounds (10 and 13) were explored for cell cycle distribution to determine the intracellular mode of action of these compounds. […] In the present study, compounds 10 and 13 arrest different cell cycle phases in A549, MDA-MB 231, and SKOV3 cancer cells. […] However, compound 10 arrests the G2/S phase in both MDA-MB 231 and SKOV3, while it arrests the G1/G2 phases in lung A549 carcinoma.
(§10) The analysis was performed according to our previously published work.
as §1, §2, §3, §4, §6, §7, §8

SKOV3 cells [6] = test: Cell cycle distribution, propidium iodide flow cytometry, SKOV3; assay type: cell-based, human; conditions: for cell cycle arrest phase: SKOV3; for cell distribution in G1 phase / cell distribution in G2 phase / cell distribution in S phase: SKOV3, treated at IC50 for 48 h; for cell distribution in G1 phase: control 31.03 ± 1.86%; for cell distribution in G2 phase: control 34.23 ± 1.38%; for cell distribution in S phase: control 34.72 ± 1.80%
Experimental: as §9, §10, §1, §2, §3, §4, §6, §7, §8

A549 cells [7] = test: Cell cycle distribution, propidium iodide flow cytometry, A549; assay type: cell-based, human; conditions: for cell cycle arrest phase: A549; for cell distribution in G2 phase / cell distribution in G1 phase / cell distribution in S phase: A549, treated at IC50 for 48 h; for cell distribution in G2 phase: control 29.13 ± 2.31%; for cell distribution in G1 phase: control 32.88 ± 2.04%; for cell distribution in S phase: control 38.48 ± 3.71%
Experimental: as §9, §10, §1, §2, §3, §4, §6, §7, §8

SKOV3 cells [8] = test: Apoptosis, annexin V-FITC/PI flow cytometry, SKOV3; assay type: cell-based, human
Experimental: as §5, §1, §2, §3, §4, §6, §7, §8

A549 cells [9] = test: Apoptosis, annexin V-FITC/PI flow cytometry, A549; assay type: cell-based, human; conditions: for early apoptosis: A549; for late apoptosis / necrosis: A549, result in words
Experimental: as §5, §1, §2, §3, §4, §6, §7, §8

esophageal cancer = conditions: cited from earlier work
[10] = system: non-small cell lung cancer (NSCLC); conditions: cited from earlier work
hepatocellular carcinoma = conditions: cited from earlier work

Fc1ccc(-n2cc(CSc3nnc(Cn4c(-c5ccc(Cl)cc5Cl)nc5ccccc54)o3)nn2)cc1 [Compound 8, 2-{[2-(2,4-Dichlorophenyl)-1H-benzo[d]imidazol-1-yl]methyl}-5-({[1-(4-Fluorophenyl)-1H-1,2,3-triazol-4-yl]methyl}thio)-1,3,4-oxadiazole]
IC50 (MDA-MB-231 cells [1]): 15.5 ± 1.64 µM
IC50 (SKOV3 cells [2]): 17.7 ± 0.68 µM
IC50 (A549 cells [3]): 26.7 ± 1.26 µM
melting point: 110 to 112 °C

Clc1ccc(-c2nc3ccccc3n2Cc2nnc(SCc3cn(-c4cccc(Br)c4)nn3)o2)c(Cl)c1 [Compound 9, 2-({[1-(3-Bromophenyl)-1H-1,2,3-triazol-4-yl]methyl}thio)-5-{[2-(2,4-Dichlorophenyl)-1H-benzo[d]imidazol-1-yl]methyl}-1,3,4-oxadiazole]
IC50 (MDA-MB-231 cells [1]): 10.9 ± 0.58 µM
IC50 (SKOV3 cells [2]): 13.6 ± 0.71 µM
IC50 (A549 cells [3]): 17.4 ± 0.54 µM
IC50 (EGFR kinase): 0.95 ± 0.023 µM
melting point: 180 to 182 °C

Oc1ccccc1-n1cc(CSc2nnc(Cn3c(-c4ccc(Cl)cc4Cl)nc4ccccc43)o2)nn1 [Compound 10, 2-(4-{[(5-{[2-(2,4-Dichlorophenyl)-1H-benzo[d]imidazol-1-yl]methyl}-1,3,4-oxadiazol-2-yl)thio]methyl}-1H-1,2,3-triazol-1-yl)phenol]
fold increase in cytotoxicity versus doxorubicin (MDA-MB-231 cells [1]): 4.0 fold
IC50 (MDA-MB-231 cells [1]): 1.18 ± 0.68 µM
early apoptosis (MDA-MB-231 cells [4]): 69.7%
late apoptosis (MDA-MB-231 cells [4]): 3.2%
necrosis (MDA-MB-231 cells [4]; MDA-MB-231, result in words): without any necrosis
IC50 (SKOV3 cells [2]): 6.98 ± 0.28 µM
fold better activity than doxorubicin (SKOV3 cells [2]): 1.23 fold
cell cycle arrest phase (MDA-MB-231 cells [5]): S and G2 phases
cell distribution in G1 phase (MDA-MB-231 cells [5]): 17.58 ± 1.45%
cell distribution in S phase (MDA-MB-231 cells [5]): 37.82 ± 2.57%
cell distribution in G2 phase (MDA-MB-231 cells [5]): 44.58 ± 3.03%
cell cycle arrest phase (SKOV3 cells [6]): G2/S phase
cell distribution in G1 phase (SKOV3 cells [6]): 16.15 ± 2.11%
cell distribution in G2 phase (SKOV3 cells [6]): 48.73± 1.89%
cell distribution in S phase (SKOV3 cells [6]): 35.11 ± 1.21%
cell cycle arrest phase (A549 cells [7]): G1 and G2 phases
cell distribution in G2 phase (A549 cells [7]): 33.01 ± 2.28%
cell distribution in G1 phase (A549 cells [7]): 34.66 ± 2.80%
cell distribution in S phase (A549 cells [7]): 32.32 ± 1.51%
times more active than doxorubicin (A549 cells [3]): 1.76 times
IC50 (A549 cells [3]): 3.31 ± 0.14 µM
IC50 (EGFR kinase): 0.33 ± 0.051 µM
early apoptosis (SKOV3 cells [8]): 58.5%
early apoptosis (A549 cells [9]): 55.1%
late apoptosis (A549 cells [9]): no late apoptosis
necrosis (A549 cells [9]): no late apoptosis or necrosis

Cc1ccccc1-n1cc(CSc2nnc(Cn3c(-c4ccc(Cl)cc4Cl)nc4ccccc43)o2)nn1 [Compound 11, 2-{[2-(2,4-Dichlorophenyl)-1H-benzo[d]imidazol-1-yl]methyl}-5-({[1-(o-tolyl)-1H-1,2,3-triazol-4-yl]methyl}thio)-1,3,4-oxadiazole]
IC50 (MDA-MB-231 cells [1]): 36.7 ± 0.75 µM
IC50 (SKOV3 cells [2]): 25.7 ± 1.16 µM
IC50 (A549 cells [3]): 43.8 ± 0.87 µM
melting point: 152 to 153 °C

Clc1ccc(-c2nc3ccccc3n2Cc2nnc(SCc3cn(-c4ccc(Cl)cc4Cl)nn3)o2)c(Cl)c1 [Compound 12, 2-({[1-(2,4-Dichlorophenyl)-1H-1,2,3-triazol-4-yl]methyl}thio)-5-{[2-(2,4-Dichlorophenyl)-1H-benzo[d]imidazol-1-yl]methyl}-1,3,4-oxadiazole]
IC50 (MDA-MB-231 cells [1]): 25.2 ± 1.82 µM
IC50 (SKOV3 cells [2]): 33.6 ± 0.91 µM
IC50 (A549 cells [3]): 37.1 ± 0.67 µM
melting point: 100 to 102 °C

O=C(CSc1nnc(Cn2c(-c3ccc(Cl)cc3Cl)nc3ccccc32)o1)Nc1ccc(F)cc1 [Compound 13, 2-[(5-{[2-(2,4-Dichlorophenyl)-1H-benzo[d]imidazol-1-yl]methyl}-1,3,4-oxadiazol-2-yl)thio]-N-(4-Fluorophenyl)acetamide]
fold increase in cytotoxicity versus doxorubicin (MDA-MB-231 cells [1]): 1.64 fold
IC50 (MDA-MB-231 cells [1]): 2.9 ± 0.53 µM
early apoptosis (MDA-MB-231 cells [4]): 80.24%
late apoptosis (MDA-MB-231 cells [4]): 5.4%
IC50 (SKOV3 cells [2]): 4.35 ± 0.38 µM
fold better activity than doxorubicin (SKOV3 cells [2]): 1.98 fold
cell cycle arrest phase (MDA-MB-231 cells [5]): G1 and S phases
cell distribution in G1 phase (MDA-MB-231 cells [5]): 34.88 ± 3.09%
cell distribution in S phase (MDA-MB-231 cells [5]): 41.14 ± 1.34%
cell distribution in G2 phase (MDA-MB-231 cells [5]): 23.97 ± 2.93%
cell cycle arrest phase (SKOV3 cells [6]): only the S phase
cell distribution in G1 phase (SKOV3 cells [6]): 25.38 ± 0.44%
cell distribution in G2 phase (SKOV3 cells [6]): 28.65 ± 1.73%
cell distribution in S phase (SKOV3 cells [6]): 45.93 ± 1.78%
cell cycle arrest phase (A549 cells [7]): G1 phase
cell distribution in G2 phase (A549 cells [7]): 24.64 ± 2.52%
cell distribution in G1 phase (A549 cells [7]): 36.34 ± 2.19%
cell distribution in S phase (A549 cells [7]): 38.99 ± 1.67%
times more active than doxorubicin (A549 cells [3]): 1.1 times
IC50 (A549 cells [3]): 5.3 ± 0.44 µM
IC50 (EGFR kinase): 0.38 ± 0.022 µM
early apoptosis (SKOV3 cells [8]): 76.2%
late apoptosis (SKOV3 cells [8]): 21.7%
early apoptosis (A549 cells [9]): 66.4%
late apoptosis (A549 cells [9]): no late apoptosis
necrosis (A549 cells [9]): no late apoptosis or necrosis

O=C(CSc1nnc(Cn2c(-c3ccc(Cl)cc3Cl)nc3ccccc32)o1)Nc1ccc(F)cc1F [Compound 14, 2-[(5-{[2-(2,4-Dichlorophenyl)-1H-benzo[d]imidazol-1-yl]methyl}-1,3,4-oxadiazol-2-yl)thio]-N-(2,4-Difluorophenyl)acetamide]
IC50 (MDA-MB-231 cells [1]): 20.9 ± 0.24 µM
IC50 (SKOV3 cells [2]): 12.8 ± 0.53 µM
IC50 (A549 cells [3]): 11.6 ± 0.29 µM
IC50 (EGFR kinase): 1.21 ± 0.047 µM
melting point: 212 to 214 °C

O=C(CSc1nnc(Cn2c(-c3ccc(Cl)cc3Cl)nc3ccccc32)o1)Nc1ccc(Br)cc1 [Compound 15, N-(4-Bromophenyl)-2-[(5-{[2-(2,4-Dichlorophenyl)-1H-benzo[d]imidazol-1-yl]methyl}-1,3,4-oxadiazol-2-yl)thio]acetamide]
IC50 (MDA-MB-231 cells [1]): 16.4 ± 0.44 µM
IC50 (SKOV3 cells [2]): 13.7 ± 0.45 µM
IC50 (A549 cells [3]): 20.6 ± 1.41 µM
melting point: 220 to 222 °C

COc1ccc(NC(=O)CSc2nnc(Cn3c(-c4ccc(Cl)cc4Cl)nc4ccccc43)o2)cc1 [Compound 16, 2-[(5-{[2-(2,4-Dichlorophenyl)-1H-benzo[d]imidazol-1-yl]methyl}-1,3,4-oxadiazol-2-yl)thio]-N-(4-Methoxyphenyl)acetamide]
IC50 (MDA-MB-231 cells [1]): 10.5 ± 0.88 µM
IC50 (SKOV3 cells [2]): 8.13 ± 0.28 µM
IC50 (A549 cells [3]): 7.83 ± 0.35 µM
IC50 (EGFR kinase): 1.09 ± 0.011 µM
melting point: 195 to 197 °C

COC(=O)c1ccccc1NC(=O)CSc1nnc(Cn2c(-c3ccc(Cl)cc3Cl)nc3ccccc32)o1 [Compound 17, Methyl 2-{2-[(5-{[2-(2,4-Dichlorophenyl)-1H-benzo[d]imidazol-1-yl]methyl}-1,3,4-oxadiazol-2-yl)thio]acetamido}benzoate]
IC50 (MDA-MB-231 cells [1]): 11.9 ± 0.91 µM
IC50 (SKOV3 cells [2]): 12.2 ± 0.35 µM
IC50 (A549 cells [3]): 18 ± 0.87 µM
IC50 (EGFR kinase): 1.54 ± 0.026 µM
melting point: 176 to 178 °C

C#Cc1cccc(Nc2ncnc3cc(OCCOC)c(OCCOC)cc23)c1 [Erlotinib, erlotinib]
cell cycle arrest phase (esophageal cancer): G1/G0 phase
cell cycle arrest phase [10]: G0/G1 phase
cell cycle arrest phase (hepatocellular carcinoma): G1/S checkpoint

COc1cccc2c1C(=O)c1c(O)c3c(c(O)c1C2=O)C[C@@](O)(C(=O)CO)C[C@@H]3O[C@H]1C[C@H](N)[C@H](O)[C@H](C)O1 [doxorubicin, reference compound]
IC50 (MDA-MB-231 cells [1]): 4.76 ± 0.44 µM
IC50 (SKOV3 cells [2]): 8.65 ± 0.37 µM
IC50 (A549 cells [3]): 5.85 ± 0.61 µM
